Test results published in patent US10221139B2, “Inhibitors of histone demethylases” (Gilead Sciences, Inc., priority 2012, dated 2019).

Legend:
Format in all cases: biochemical
GASC1 (KDM4C, JMJD2C) = target: T1, GASC1 (KDM4C, JMJD2C) (Homo sapiens, UniProt Q9H3R0); experiment: Histone lysine demethylase AlphaLISA assay, GASC1; settings: substrate BK9M3
T1 construct: 1-349; host or cells: E. coli
T1 sequence (Q9H3R0 1-349): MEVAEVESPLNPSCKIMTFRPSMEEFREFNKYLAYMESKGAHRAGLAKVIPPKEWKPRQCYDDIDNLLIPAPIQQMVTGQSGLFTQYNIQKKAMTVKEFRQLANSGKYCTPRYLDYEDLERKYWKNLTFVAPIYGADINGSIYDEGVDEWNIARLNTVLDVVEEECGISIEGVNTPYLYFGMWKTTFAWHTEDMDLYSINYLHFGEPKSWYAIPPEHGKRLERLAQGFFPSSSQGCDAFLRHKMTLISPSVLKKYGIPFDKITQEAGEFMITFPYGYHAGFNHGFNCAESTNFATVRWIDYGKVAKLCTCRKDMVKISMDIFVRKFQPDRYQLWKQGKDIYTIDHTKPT
Experimental: (§1) Example 2: Histone Lysine Demethylase AlphaLISA Assays for IC50 Value Determination
(§2) Assays are performed analogously to the protocol described by Perkin Elmer (Roy et al. Perkin Elmer Technical Note: AlphaLISA #12, April 2011).
(§3) Enzymes are dissolved in enzyme buffer and incubated for 10 min before 5 μL is added to 5 μL 3% DMSO solutions of compounds in enzyme buffer. Incubated for another 10 minutes, before 5 μL substrate solution is added and the reaction mixture is incubated at room temperature for the given period. 10 μL acceptor beads, suspended at given dilutions in Epigenetic Buffer (Perkin Elmer AL008) from stock, are added and the suspension is incubated 60 minutes in the dark at room temperature, before 10 μL suspension (at the given dilutions in Epigenetic Buffer) of streptavidin donor beads (Perkin Elmer 6760002) in Epigenetic Buffer is added. After incubation at room temperature in the dark the plates are read. Reaction conditions are seen in Table 2b.

UTX (KDM6A) = target: T2, UTX (KDM6A) (Homo sapiens, UniProt O15550); experiment: Histone lysine demethylase AlphaLISA assay, UTX; settings: substrate BK27M3
T2 construct: 919-1401; host or cells: E. coli
Experimental: as §1, §2, §3

PLU1 (KDM5B) = target: T3, PLU1 (KDM5B) (Homo sapiens, UniProt Q9UGL1); experiment: Histone lysine demethylase AlphaLISA assay, PLU1; settings: substrate H3K4M3B
T3 construct: 1-809; host or cells: E. coli
T3 sequence (Q9UGL1 1-809): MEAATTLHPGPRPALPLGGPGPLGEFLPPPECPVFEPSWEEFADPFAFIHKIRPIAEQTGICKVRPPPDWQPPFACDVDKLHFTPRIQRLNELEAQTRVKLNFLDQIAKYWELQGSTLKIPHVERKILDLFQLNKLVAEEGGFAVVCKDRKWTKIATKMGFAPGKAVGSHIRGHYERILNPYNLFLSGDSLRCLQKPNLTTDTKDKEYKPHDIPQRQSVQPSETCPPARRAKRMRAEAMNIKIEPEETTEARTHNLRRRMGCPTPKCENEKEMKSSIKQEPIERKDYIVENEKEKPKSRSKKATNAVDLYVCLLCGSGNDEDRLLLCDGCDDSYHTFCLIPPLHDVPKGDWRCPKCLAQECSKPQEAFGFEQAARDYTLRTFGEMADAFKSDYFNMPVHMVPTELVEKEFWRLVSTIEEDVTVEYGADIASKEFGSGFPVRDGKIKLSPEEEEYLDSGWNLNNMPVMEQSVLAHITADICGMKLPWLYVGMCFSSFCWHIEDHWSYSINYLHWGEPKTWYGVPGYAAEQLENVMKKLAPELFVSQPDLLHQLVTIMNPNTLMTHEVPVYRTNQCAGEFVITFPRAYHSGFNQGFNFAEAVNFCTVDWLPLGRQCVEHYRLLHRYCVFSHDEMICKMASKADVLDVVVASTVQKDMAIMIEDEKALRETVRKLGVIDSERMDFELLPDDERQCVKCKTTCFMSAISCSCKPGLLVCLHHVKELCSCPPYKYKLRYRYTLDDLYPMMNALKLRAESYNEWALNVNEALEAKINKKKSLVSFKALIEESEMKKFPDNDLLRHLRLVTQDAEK
Experimental: as §1, §2, §3

T2 sequence (O15550 919-1401): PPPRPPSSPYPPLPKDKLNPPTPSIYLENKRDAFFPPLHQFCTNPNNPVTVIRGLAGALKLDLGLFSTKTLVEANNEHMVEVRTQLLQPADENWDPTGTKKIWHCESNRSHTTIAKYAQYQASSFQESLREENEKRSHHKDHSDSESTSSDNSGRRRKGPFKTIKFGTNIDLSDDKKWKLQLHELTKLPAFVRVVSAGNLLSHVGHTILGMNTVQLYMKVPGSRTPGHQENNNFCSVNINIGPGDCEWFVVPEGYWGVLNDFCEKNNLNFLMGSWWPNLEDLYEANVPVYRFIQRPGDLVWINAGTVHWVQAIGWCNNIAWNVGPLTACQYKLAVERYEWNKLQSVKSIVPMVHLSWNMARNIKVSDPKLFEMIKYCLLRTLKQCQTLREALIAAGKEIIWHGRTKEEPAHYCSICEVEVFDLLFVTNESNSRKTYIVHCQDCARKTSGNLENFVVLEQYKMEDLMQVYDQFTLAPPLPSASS

Structure (SMILES) | IC50 (GASC1 (KDM4C, JMJD2C)) [nM] | IC50 (UTX (KDM6A)) [nM] | IC50 (PLU1 (KDM5B)) [nM]
CC(C)CCNCc1cc(C(=O)O)ccn1 [#22, 2-{[(3-methylbutyl)amino]methyl}pyridine-4-carboxylic acid] | 100 to 1000 | ≥ 1000 | 100 to 1000
CN(CCC(N)=O)C(=O)CNCc1cc(C(=O)O)ccn1 [#23, 2-[({[(2-carbamoylethyl)(methyl)carbamoyl]methyl}amino)methyl]pyridine-4-carboxylic acid] | < 100 | ≥ 1000 | < 100
O=C(O)c1ccnc(CNCC(=O)N2CCCCC2CO)c1 (stereo not drawn) [#24, 2-[({2-[2-(hydroxymethyl)piperidin-1-yl]-2-oxoethyl}amino)methyl]pyridine-4-carboxylic acid] | < 100 | ≥ 1000 | < 100
CN(CCCc1nccn1C)C(=O)CNCc1cc(C(=O)O)ccn1 [#25, 2-{[({methyl[3-(1-methyl-1H-imidazol-2-yl)propyl]carbamoyl}methyl)amino]methyl}pyridine-4-carboxylic acid] | < 100 | ≥ 1000 | < 100
CCN1CCCC1CNC(=O)CNCc1cc(C(=O)O)ccn1 (stereo not drawn) [#26, 2-{[({[(1-ethylpyrrolidin-2-yl)methyl]carbamoyl}methyl)amino]methyl}pyridine-4-carboxylic acid] | < 100 | ≥ 1000 | < 100
CN(Cc1ccnn1C)C(=O)CNCc1cc(C(=O)O)ccn1 [#27, 2-{[({methyl[(1-methyl-1H-pyrazol-5-yl)methyl]carbamoyl}methyl)amino]methyl}pyridine-4-carboxylic acid] | < 100 | ≥ 1000 | < 100
O=C(CNCc1cc(C(=O)O)ccn1)NC1CCN(CCCc2ccccc2)CC1 [#30, 2-{[({[1-(3-phenylpropyl)piperidin-4-yl]carbamoyl}methyl)amino]methyl}pyridine-4-carboxylic acid] | < 100 | ≥ 1000 | < 100
O=C(CNCc1cc(C(=O)O)ccn1)NC1CCN(Cc2ccco2)CC1 [#31, 2-{[({[1-(furan-2-ylmethyl)piperidin-4-yl]carbamoyl}methyl)amino]methyl}pyridine-4-carboxylic acid] | < 100 | 100 to 1000 | < 100
O=C(CNCc1cc(C(=O)O)ccn1)NC1CCN(Cc2ccc(-c3ccccc3)o2)CC1 [#32, 2-({[({1-[(5-phenylfuran-2-yl)methyl]piperidin-4-yl}carbamoyl)methyl]amino}methyl)pyridine-4-carboxylic acid] | < 100 | ≥ 1000 | < 100
CCN(CCC#N)C(=O)CNCc1cc(C(=O)O)ccn1 [#33, 2-[({[(2-cyanoethyl)(ethyl)carbamoyl]methyl}amino)methyl]pyridine-4-carboxylic acid] | < 100 | ≥ 1000 | < 100
CN(CCCNCc1cc(C(=O)O)ccn1)Cc1ccccc1F [#36, 2-{[(3-{[(2-fluorophenyl)methyl](methyl)amino}propyl)amino]methyl}pyridine-4-carboxylic acid] | < 100 | ≥ 1000 | < 100
O=C(O)c1ccnc(CNCC(=O)N2CCCC(Cc3nc4ccccc4[nH]3)C2)c1 (stereo not drawn) [#38, 2-[({2-[3-(1H-1,3-benzodiazol-2-ylmethyl)piperidin-1-yl]-2-oxoethyl}amino)methyl]pyridine-4-carboxylic acid] | < 100 | ≥ 1000 | < 100
O=C(CNCc1cc(C(=O)O)ccn1)NC1CCN(CCc2ccccc2)C1 (stereo not drawn) [#39, 2-{[({[1-(2-phenylethyl)pyrrolidin-3-yl]carbamoyl}methyl)amino]methyl}pyridine-4-carboxylic acid] | < 100 | ≥ 1000 | < 100
O=C(O)c1ccnc(CNCCCN2CCC(Cc3ccccc3)CC2)c1 [#40, 2-({[3-(4-benzylpiperidin-1-yl)propyl]amino}methyl)pyridine-4-carboxylic acid] | < 100 | ≥ 1000 | < 100
O=C(O)c1ccnc(CNCCCNCCOc2ccccc2)c1 [#41, 2-[({3-[(2-phenoxyethyl)amino)propyl}amino)methyl]pyridine-4-carboxylic acid] | < 100 | ≥ 1000 | < 100
CN1CCN(Cc2ccc(CN(C)C(=O)CNCc3cc(C(=O)O)ccn3)cc2)CC1 [#42, 2-[({[methyl({4-[(4-methylpiperazin-1-yl)methyl]phenyl}methyl)carbamoyl]methyl}amino)methyl]pyridine-4-carboxylic acid] | < 100 | 100 to 1000 | < 100
O=C(O)c1ccnc(CNCC(=O)N2CCCC2Cc2ccccc2)c1 (stereo not drawn) [#43, 2-({[2-(2-benzylpyrrolidin-1-yl)-2-oxoethyl]amino}methyl)pyridine-4-carboxylic acid] | < 100 | ≥ 1000 | < 100
CCOC(=O)c1ccccc1OC(=O)c1ccnc(CNCCCCN(CC)CC)c1 [#52, 2-(ethoxycarbonyl)phenyl 2-({[4-(diethylamino)butyl]amino}methyl)pyridine-4-carboxylate] | 100 to 1000 | ≥ 1000 | < 100
CCN(CC)CCCCNCc1cc(C(=O)OCCN(C)C)ccn1 [#53, 2-(dimethylamino)ethyl 2-({[4-(diethylamino)butyl]amino}methyl)pyridine-4-carboxylate] | < 100 | ≥ 1000 | < 100
CCN(CC)CCCCNCc1cc(C(=O)OCCCN(C)C)ccn1 [#54, 3-(dimethylamino)propyl 2-({[4-(diethylamino)butyl]amino}methyl)pyridine-4-carboxylate] | 100 to 1000 | ≥ 1000 | < 100
CCN(CC)CCCCNCc1cc(C(=O)Oc2c(OC)cccc2OC)ccn1 [#56, 2,6-dimethoxyphenyl 2-({[4-(diethylamino)butyl]amino}methyl)pyridine-4-carboxylate] | 100 to 1000 | ≥ 1000 | < 100
CCN(CC)CCCCNCc1cc(C(=O)Oc2c(C)cccc2C)ccn1 [#57, 2,6-dimethylphenyl 2-({[4-(diethylamino)butyl]amino}methyl)pyridine-4-carboxylate] | ≥ 1000 | ≥ 1000 | < 100
CCN(CCN(C)C)C(=O)CNCc1cc(C(=O)Oc2ccc(OC)cc2)ccn1 [#58, 4-methoxyphenyl 2-{[({[2-(dimethylamino)ethyl](ethyl)carbamoyl}methyl)amino]methyl}pyridine-4-carboxylate] | 100 to 1000 | ≥ 1000 | < 100
CCOC(=O)c1ccccc1OC(=O)c1ccnc(CNCC(=O)N(CC)CCN(C)C)c1 [#59, 2-(ethoxycarbonyl)phenyl 2-{[({[2-(dimethylamino)ethyl](ethyl)carbamoyl}methyl)amino]methyl}pyridine-4-carboxylate] | < 100 | < 100 | < 100
CCOC(=O)N(C)c1ccc(COC(=O)c2ccnc(CNCCCCN(CC)CC)c2)cc1 [#60, {4-[(ethoxycarbonyl)(methyl)amino]phenyl}methyl 2-({[4-(diethylamino)butyl]amino}methyl)pyridine-4-carboxylate] | ≥ 1000 | < 100 | < 100
CCN(CCN(C)C)C(=O)CNCc1cc(C(=O)OC(C)CCN(C)C(=O)C(F)(F)F)ccn1 (stereo not drawn) [#64, 4-(2,2,2-trifluoro-N-methylacetamido)butan-2-yl 2-{[({[2-(dimethylamino)ethyl](ethyl)carbamoyl}methyl)amino]methyl}pyridine-4-carboxylate] | < 100 | ≥ 1000 | 100 to 1000
